# Measured values published in patent publication US10251871B2, “Compositions and methods for treatment of edema” (Memorial Sloan Kettering Cancer Center, priority 2015, dated 2019).
# Tests used:
# [1] = system: hind limb lymphatic ablation with DT; assay: Hind limb lymphatic ablation with DT; assay type: in vivo, mouse
# [2] = system: popliteal lymph node dissection (PLND) mouse model; assay: Popliteal lymph node dissection (PLND) hind limb model of lymphatic injury
# [3] = system: mouse tail model of lymphedema; assay: Mouse tail model of lymphedema (tail volume, histology, immunostaining, lymphoscintigraphy, NIR imaging, PCR, ELISA); assay type: in vivo, C57BL/6J mice
# [4] = captopril after DT lymphatic ablation, ipsilateral limb vs ipsilateral control
# [5] = topical captopril 5% once daily for 2 weeks after PLND, vs control
# [6] = topical captopril 5% once daily, 6 weeks after tail lymphatic ablation, vs control
# [7] = systemic pirfenidone once daily for 2 weeks from 2 weeks after PLND, 4 weeks after PLND, vs vehicle
# [8] = systemic pirfenidone, 4 weeks after PLND, vs control
# [9] = systemic pirfenidone, oral 400 mg/kg daily for 3 weeks from 7 weeks after surgery, vs control
# [10] = systemic pirfenidone, vs control
# [11] = topical pirfenidone 1 mg/ml daily for 3 weeks from 7 weeks after surgery, vs control
# [12] = topical pirfenidone, vs control
smiles,measurement,setting,value
C[C@H](CS)C(=O)N1CCC[C@H]1C(=O)O [captopril],LYVE-1+ lymphatic vessel area,[1]; [4],significant decrease
same,T cell (CD3+) infiltration in hind limb tissues,[1]; [4],decreases
same,hind limb angiotensin converting enzyme (ACE) expression,[1]; [4],decreases
same,hind limb collecting vessel smooth muscle (α-SMA) deposition,[1]; [4],decreases
same,hind limb lymphangiogenesis (LYVE-1+ lymphatic vessels),[1]; [4],decreases
same,hind limb macrophage (F4/80+) infiltration,[1]; [4],decreases
same,hind limb type I collagen deposition,[1]; [4],decreases
same,formation of collateral lymphatics (ICG),"[1]; captopril after DT lymphatic ablation, vs control",increases
same,foot swelling,"[1]; captopril treatment after hind limb lymphatic ablation with DT, vs control",obvious decrease
same,T cell (CD3+) infiltration in hind limb tissues,[2]; [5],decreases
same,hind limb collecting lymphatic pumping (packet frequency),[2]; [5],increases
same,lymphangiogenesis (LYVE-1+ vessels),[2]; [5],increases
same,macrophage (F4/80+) infiltration in hind limb tissues,[2]; [5],decreases
same,trafficking of dendritic cells (FITC+CD11c cells in inguinal lymph nodes),[2]; [5],increases
same,lymphatic function,"[2]; topical captopril 5% once daily for 2 weeks after PLND, vs vehicle",improved lymphatic function
same,ACE staining area,[3]; [6],significant decrease
same,LYVE-1+ lymphatic vessel area,[3]; [6],significant decrease
same,dermal type I collagen staining area,[3]; [6],significant decrease
same,number of lymphatic vessels (LYVE-1+) crossing the region of the tail wound,[3]; [6],increases
same,perilymphatic CD3+ cells/vessel,[3]; [6],significant decrease
same,perilymphatic F4/80 cells/vessel,[3]; [6],significant decrease
same,subcutaneous fibroadipose tissue deposition,[3]; [6],significant decrease
same,tail collecting vessel pumping (contraction) frequency,"[3]; topical captopril ointment, 6 weeks after tail lymphatic ablation, vs control",increases
C/C(O)=C(\C#N)C(=O)Nc1ccc(C(F)(F)F)cc1 [teriflunomide],increase in number of DCs trafficked to the inguinal lymph node (FITC painting),"[2]; topical teriflunomide 27 mg/ml after PLND, vs control",more than 5 fold
same,increase in formation of collateral lymphatic vessels bypassing the zone of injury (ICG near infra-red imaging),"[2]; topical teriflunomide 27 mg/ml once daily for 2 weeks from 2 weeks after PLND, vs vehicle",4.5 fold
same,decrease in tail volume,"[3]; topical teriflunomide 27 mg/ml once daily for 4 weeks from 2 weeks after surgery, 6 weeks after lymphatic ablation, vs vehicle",~6 fold
same,decrease in number of infiltrating CD4+ cells in tail tissues,"[3]; topical teriflunomide 27 mg/ml, vs control",more than 8 fold
Cc1ccc(=O)n(-c2ccccc2)c1 [pirfenidone],lymphatic vessels density (LYVE-1) in the hind limb,"[2]; systemic pirfenidone once daily for 2 weeks from 2 weeks after PLND, 4 weeks after PLND, vs control",marked increase
same,dermal backflow and capillary vessel leakage (NIR lymphangiography),[2]; [7],markedly less
same,increase in rate of collecting lymphatic vessel contraction,[2]; [7],2 fold
same,perilymphatic expression of iNOS by inflammatory cells,[2]; [8],significant decrease
same,perilymphatic infiltration of inflammatory cells (CD45+),[2]; [8],significant decrease
same,TGF-β1 protein accumulation (ELISA),"[3]; pirfenidone (FIG. 20I: systemic), vs control",decreased accumulation
same,accumulation of IFN-γ protein (ELISA),"[3]; pirfenidone (FIG. 20J: systemic), vs control",significant decrease
same,VEGF-C protein accumulation (ELISA),"[3]; pirfenidone (FIG. 20K: systemic), vs control",no difference
same,numbers of infiltrating CD4+ cells,"[3]; pirfenidone treatment (systemic and topical, FIG. 20A, 20D), vs control",marked decreases
same,numbers of infiltrating CD3+ cells,"[3]; pirfenidone treatment from 7 weeks after surgery, vs control",marked decreases
same,lymphatic vessels density (LYVE-1) in the tail,"[3]; pirfenidone, vs control",marked increase
same,type I collagen around collecting lymphatics (α-SMA+/podoplanin+),[3]; pirfenidone-treated animals vs control,essentially normal lymphatic vessels
same,soft tissue thickness,[3]; [9],markedly decreased
same,tail volume,[3]; [9],markedly decreased
same,F4/80+ cellular infiltration in lymphedematous tail tissues,[3]; [10],no difference
same,accumulation of TGF-β1+ cells,[3]; [10],markedly decreased
same,accumulation of pSMAD3+ cells,[3]; [10],markedly decreased
same,dermal and subcutaneous type I collagen deposition,[3]; [10],significantly decreased
same,increase in decay-adjusted 99Tc uptake of the sacral lymph nodes,[3]; [10],~4 fold
same,increase in peak nodal uptake of 99Tc,[3]; [10],~4 fold
same,numbers of leukocytes infiltrating the dermis and subcutaneous fat,[3]; [10],markedly decreased
same,rate of 99Tc uptake (slope of decay-adjusted curve),[3]; [10],increased
same,soft tissue thickness,[3]; [11],markedly decreased
same,tail volume,[3]; [11],markedly decreased
same,F4/80+ cellular infiltration in lymphedematous tail tissues,[3]; [12],no difference
same,accumulation of TGF-β1+ cells,[3]; [12],markedly decreased
same,accumulation of pSMAD3+ cells,[3]; [12],markedly decreased
same,dermal and subcutaneous type I collagen deposition,[3]; [12],significantly decreased
same,increase in decay-adjusted 99Tc uptake of the sacral lymph nodes,[3]; [12],~4 fold
same,increase in peak nodal uptake of 99Tc,[3]; [12],~4 fold
same,numbers of leukocytes infiltrating the dermis and subcutaneous fat,[3]; [12],markedly decreased
same,rate of 99Tc uptake (slope of decay-adjusted curve),[3]; [12],increased
